According to patent US11130769B2 (Prelude Therapeutics Incorporated, priority 2018, dated 2021):
Where two headings read alike, the source gives them in different places.

Key:
H929 cells = experiment: Cell viability assay (H929 10 FBS); type: cell-based; details: Homo sapiens, NCI-H929, 24 hours, read-out: H929_10FBS IC50
Method: Cell Viability Assay (H929 10 FBS)
Dispense 10 μL aliquot of prepared H929 cells (1:1 ratio of cells:Trypan Blue (#1450013, Bio-Rad)) onto cell counting slide (#145-0011, Bio-Rad) and obtain cell density and cell viability using cell counter (TC20, Bio-Rad). Remove appropriate volume of resuspended cells from culture flask to accommodate 4000 cells/well @ 10 μL/well. Transfer H929 cells to 50 mL conical (#430290, Corning). Spin down at 1000 rpm for 5 min using tabletop centrifuge (SPINCHRON 15, Beckman). Discard supernatant and resuspend cell pellet in modified RPMI 1640 (#10-040-CV, Corning) cell culture media containing 10% FBS (F2422-500 ML, Sigma), sodium pyruvate (100 mM) (#25-000-CL, Corning), HEPES buffer (1 M) (#25-060-CL, Corning) and glucose (200 g/L) (A24940-01, Gibco) to a cell density of 400,000 cells/mL. Dispense 10 μL of resuspended H929 cells per well in 384-well small volume TC treated plate (#784080, Greiner Bio-one) using standard cassette (#50950372, Thermo Scientific) on Multi-drop Combi (#5840310, Thermo Scientific) in laminar flow cabinet. Dispense compounds onto plates using digital liquid dispenser (D300E, Tecan). Incubate plates in humidified tissue culture incubator @ 37° C. for 24 hours. Add 10 μL of prepared CellTiTer-Glo® detection buffer (G7570, Promega) or ATPlite 1 Step detection reagent (#6016731, Perkin Elmer) to each well of 384-well plate using small tube cassette (#24073295, Thermo Scientific) on Combi multi drop, incubate @ RT for 30-60 min. Read plates with microplate reader (PheraStar, BMG Labtech) using 384 well luminescence mode.

MCL-1 = MCL-1 (Homo sapiens (Human), UniProt Q07820); experiment: Cell free Mcl-1:Bim affinity assay (fluorescence polarization competition); type: binding; details: 15 nM MCL-1, 5 nM FITC-Bim, 1 hour at room temperature, read-out: BIM_Ki
Method: The binding affinity of each compound was measured via a fluorescence polarization competition assay, in which the compound competes for the same binding site with the ligand, and thus leads to a dose-dependent anisotropy reduction. The tracer ligand utilized was a fluorescein isothiocyanate labelled peptide (FITC-[…]) derived from Bim (GenScript).
The assay was carried out in black half-area 96-well NBS plate (Corning), containing 15 nM of MCL-1 (BPS Bioscience), 5 nM of FITC-Bim and 3-fold serial diluted test compounds in a total volume of 50 μL of assay buffer (20 mM HEPES, 50 mM NaCl, 0.002% Tween 20, 1 mM TCEP, and 1% DMSO). The reaction plate was incubated for 1 hour at room temperature. The change of anisotropy is measured with an Envision multimode plate reader (PerkinElmer) at emission wavelength 535 nm. Fluorescence polarization was calculated in mP unit and the percentage inhibition was calculated by % inhibition=100×(mPDMSO−mP)/(mPDMSO−mPPC), in which mPDMSO is the DMSO control, and mPpc is the positive control. IC50 values were determined from a 10-point dose response curve by fitting the percent inhibition against compound concentration using the GraphPad Prism software. The inhibition constant Ki was subsequently calculated according to the Nikolovska-Coleska's equation (Anal. Biochem., 2004, 332, 261),
[formula] • where [I]50 is the concentration of the free inhibitor at 50% inhibition, [L]50 is the concentration of the free labeled ligand at 50% inhibition, [P]0 is the concentration of the free protein at 0% inhibition, and Kd is the dissociation constant of the protein-ligand complex. See Table F. Caspase 3/7 Activity Assay

Chain of MCL-1 (Q07820 whole entry): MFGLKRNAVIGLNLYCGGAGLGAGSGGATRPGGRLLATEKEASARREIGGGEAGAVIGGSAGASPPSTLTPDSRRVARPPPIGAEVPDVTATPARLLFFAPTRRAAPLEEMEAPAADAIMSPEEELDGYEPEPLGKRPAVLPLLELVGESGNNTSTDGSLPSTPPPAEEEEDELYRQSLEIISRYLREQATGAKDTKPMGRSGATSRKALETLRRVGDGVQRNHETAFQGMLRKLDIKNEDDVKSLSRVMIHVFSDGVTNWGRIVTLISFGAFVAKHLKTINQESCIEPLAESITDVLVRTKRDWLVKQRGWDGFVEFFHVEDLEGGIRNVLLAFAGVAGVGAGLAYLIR

## CON(C)C(=O)O[C@H]1/C=C/COC(C)(C)C(=O)NS(=O)(=O)c2ccc3c(c2)N(C[C@@H]2CC[C@H]21)C[C@@]1(CCOc2cc(Cl)ccc21)CO3 [Example 306, [(3R,6R,7S,8E,22S)-7′-Chloro-12,12-dimethyl-13,15,15-trioxo-spiro[11,20-dioxa-15-thia-1,14-diazatetracyclo[14.7.2.03,6.019,24]pentacosa-8,16,18,24-tetraene-22,4′-chromane]-7-yl] N-methoxy-N-methyl-carbamate]
H929 cells
  IC50: < 500 nM
MCL-1; class symbols
  Ki: < 1 nM

## CO[C@@H]1/C=C/CN(C)CC2(CCC2)C(=O)NS(=O)(=O)c2ccc3c(c2)N(C[C@@H]2CC[C@H]21)C[C@@]1(CCCc2cc(Cl)ccc21)CO3 [Example 27, (3R,6R,7R,8E,23S)-6′-Chloro-7-methoxy-11-methyl-13,13-(1,3-propylene)-16,16-dioxo-spiro[21-oxa-16-thia-1,11,15-triazatetracyclo[15.7.2.03,6.020,25]hexacosa[8,17(26),18,20(25)]tetraene-23,1′-tetralin]-14-one]
H929 cells
  IC50: > 1000 nM
MCL-1; class symbols
  Ki: 1 to 100 nM

## CO[C@@H]1/C=C/CN(C(C)=O)[C@H](C)C(=O)NS(=O)(=O)c2ccc3c(c2)N(C[C@@H]2CC[C@H]21)C[C@@]1(CCCc2cc(Cl)ccc21)CO3 [Example 133, (3R,6R,7R,8E,12R,22S)-6′-Chloro-7-methoxy-11-acetyl-12-methyl-15,15-dioxo-spiro[20-oxa-15-thia-1,11,14-triazatetracyclo[14.7.2.03,6.019,24]pentacosa-8,16(25),17,19(24)-tetraene-22,1′-tetralin]-13-one]
H929 cells
  IC50: > 1000 nM
MCL-1; class symbols
  Ki: 1 to 100 nM

## O=C(NS(=O)(=O)c1ccc2c(c1)N(CC1CCC1)C[C@@]1(CCCc3cc(Cl)ccc31)CO2)C1CCCC1 [Example 13, N-[(3S)-6′-Chloro-5-(cyclobutylmethyl)spiro[2,4-dihydro-1,5-benzoxazepine-3,1′-tetralin]-7-yl]sulfonylcyclopentanecarboxamide]
H929 cells
  IC50: > 1000 nM
MCL-1; numeric values
  Ki: 22 nM

## CN[C@@H]1CCN(C(=O)O[C@H]2/C=C/COC(C)(C)C(=O)NS(=O)(=O)c3ccc4c(c3)N(C[C@@H]3CC[C@H]32)C[C@@]2(CCCc3cc(Cl)ccc32)CO4)C1 [Example 164, [(3R,6R,7S,8E,22S)-6′-Chloro-12,12-dimethyl-13,15,15-trioxo-spiro[11,20-dioxa-15-thia-1,14-diazatetracyclo[14.7.2.03,6.019,24]pentacosa-8,16,18,24-tetraene-22,1′-tetralin]-7-yl] (3R)-3-(methylamino)pyrrolidine-1-carboxylate]
H929 cells
  IC50: < 500 nM
MCL-1; class symbols
  Ki: < 1 nM

## O=C(CCc1ccncc1)NS(=O)(=O)c1ccc2c(c1)N(CC1CCC1)C[C@@]1(CCCc3cc(Cl)ccc31)CO2 (racemic) [Example 20, 3-Pyridin-4-yl-N-[rac-(3S)-6′-chloro-5-(cyclobutylmethyl)spiro[2,4-dihydro-1,5-benzoxazepine-3,1′-tetralin]-7-yl]sulfonyl-propanamide]
H929 cells
  IC50: > 1000 nM
MCL-1; numeric values
  Ki: 21.8 nM

## CC1(C)OC/C=C/[C@H](OC(=O)N2CCCC2)[C@@H]2CC[C@H]2CN2C[C@@]3(CCCc4cc(Cl)ccc43)COc3ccc(cc32)S(=O)(=O)NC1=O [Example 173, [(3R,6R,7S,8E,22S)-6′-Chloro-12,12-dimethyl-13,15,15-trioxo-spiro[11,20-dioxa-15-thia-1,14-diazatetracyclo[14.7.2.03,6.019,24]pentacosa-8,16,18,24-tetraene-22,1′-tetralin]-7-yl]pyrrolidine-1-carboxylate]
H929 cells
  IC50: < 500 nM
MCL-1; class symbols
  Ki: < 1 nM

## CO[C@@H]1/C=C/CN[C@@H](C2CC2)C(=O)NS(=O)(=O)c2ccc3c(c2)N(C[C@@H]2CC[C@H]21)C[C@@]1(CCCc2cc(Cl)ccc21)CO3 [Example 126, (3R,6R,7R,8E,12S,22S)-6′-Chloro-7-methoxy-12-cyclopropyl-15,15-dioxo-spiro[20-oxa-15-thia-1,11,14-triazatetracyclo[14.7.2.03,6.019,24]pentacosa-8,16,18,24-tetraene-22,1′-tetralin]-13-one]
H929 cells
  IC50: > 1000 nM
MCL-1; class symbols
  Ki: 1 to 100 nM

## CO[C@@H]1CCN(C(=O)O[C@H]2/C=C/COC3(CCC3)C(=O)NS(=O)(=O)c3ccc4c(c3)N(C[C@@H]3CC[C@H]32)C[C@@]2(CCCc3cc(Cl)ccc32)CO4)C1 [Example 229, [(3R,6R,7S,8E,22S)-6′-Chloro-12,12-(1,3-propylene)-13,15,15-trioxo-spiro[11,20-dioxa-15-thia-1,14-diazatetracyclo[14.7.2.03,6.019,24]pentacosa-8,16,18,24-tetraene-22,1′-tetralin]-7-yl] (3S)-3-methoxypyrrolidine-1-carboxylate]
H929 cells
  IC50: < 500 nM
MCL-1; class symbols
  Ki: < 1 nM

## CO[C@@H]1/C=C\CNC(=O)NS(=O)(=O)c2ccc3c(c2)N(C[C@@H]2CC[C@H]21)C[C@@]1(CCCc2cc(Cl)ccc21)CO3 [Example 130, (3R,6R,7R,8Z,21S)-6′-Chloro-7-methoxy-14,14-dioxo-spiro[19-oxa-14-thia-1,11,13-triazatetracyclo[13.7.2.03,6.018,23]tetracosa-8,15,17,23-tetraene-21,1′-tetralin]-12-one]
H929 cells
  IC50: > 1000 nM
MCL-1; class symbols
  Ki: 1 to 100 nM

## CCNC(=O)O[C@H]1/C=C/CN(C)C(C)(C)C(=O)NS(=O)(=O)c2ccc3c(c2)N(C[C@@H]2CC[C@H]21)C[C@@]1(CCCc2cc(Cl)ccc21)CO3 [Example 204, [(3R,6R,7S,8E,22S)-6′-Chloro-11,12,12-trimethyl-13,15,15-trioxo-spiro[20-oxa-15-thia-1,11,14-triazatetracyclo[14.7.2.03,6.019,24]pentacosa-8,16,18,24-tetraene-22,1′-tetralin]-7-yl] N-ethylcarbamate]
H929 cells
  IC50: < 500 nM
MCL-1; class symbols
  Ki: < 1 nM

## CN(C)C(=O)O[C@@H]1/C=C/CNC(C)(C)C(=O)NS(=O)(=O)c2ccc3c(c2)N(C[C@@H]2CC[C@H]21)C[C@@]1(CCCc2cc(Cl)ccc21)CO3 [Example 198, [(3R,6R,7R,8E,22S)-6′-Chloro-12,12-dimethyl-13,15,15-trioxo-spiro[20-oxa-15-thia-1,11,14-triazatetracyclo[14.7.2.0˜3,6.0˜19,24]pentacosa-8,16,18,24-tetraene-22,1′-tetralin]-7-yl] N,N-dimethylcarbamate]
H929 cells
  IC50: < 500 nM
MCL-1; class symbols
  Ki: < 1 nM

## CN(C)C(=O)O[C@H]1/C=C/CN(C)C(C)(C)C(=O)NS(=O)(=O)c2ccc3c(c2)N(C[C@@H]2CC[C@H]21)C[C@@]1(CCCc2cc(Cl)ccc21)CO3 [Example 44, [(3R,6R,7S,8E,22S)-6′-chloro-11,12,12-trimethyl-13,15,15-trioxo-spiro[20-oxa-15-thia-1,11,14-triazatetracyclo[14.7.2.03,6.019,24]pentacosa-8,16,18,24-tetraene-22,1′-tetralin]-7-yl] N,N-dimethylcarbamate]
H929 cells
  IC50: < 500 nM
MCL-1; class symbols
  Ki: < 1 nM

## CNC(=O)O[C@H]1/C=C/CN(C)C(C)(C)C(=O)NS(=O)(=O)c2ccc3c(c2)N(C[C@@H]2CC[C@H]21)C[C@@]1(CCCc2cc(Cl)ccc21)CO3 [Example 203, [(3R,6R,7S,8E,22S)-6′-Chloro-11,12,12-trimethyl-13,15,15-trioxo-spiro[20-oxa-15-thia-1,11,14-triazatetracyclo[14.7.2.03,6.019,24]pentacosa-8,16,18,24-tetraene-22,1′-tetralin]-7-yl] N-methylcarbamate]
H929 cells
  IC50: < 500 nM
MCL-1; class symbols
  Ki: < 1 nM

## CO[C@H]1/C=C/CN(C)C(C)(C)C(=O)NS(=O)(=O)c2ccc3c(c2)N(C[C@@H]2CC[C@H]21)C[C@@]1(CCCc2cc(Cl)ccc21)CO3 [Example 137, (3R,6R,7S,8E,22S)-6′-Chloro-7-methoxy-11,12,12-trimethyl-15,15-dioxo-spiro[20-oxa-15-thia-1,11,14-triazatetracyclo[14.7.2.03,6.019,24]pentacosa-8,16,18,24-tetraene-22,1′-tetralin]-13-one]
H929 cells
  IC50: < 1000 nM
MCL-1; class symbols
  Ki: 1 to 100 nM
